Experiment: mn = molality of the nth substance listed, in mol/kg
Details: Liquid, Vibrating tube method

[Cl-].[Cl-].[Mg+2] [magnesium chloride] + O
mass density [kg/m3]
Details | 283.15 K | 298.12 K | 323.07 K | 348.04 K | 372.99 K | 397.97 K | 422.94 K | 447.94 K | 472.96 K
1050 kPa, m1 = 1 | 1074.73 | 1070.86 | 1061.56 | 1049.32 | 1034.76 | 1017.83 | 999.03 | – | –
1050 kPa, m1 = 5 | – | 1298.01 | 1288.53 | 1278.25 | 1267.42 | 1255.66 | 1243.3 | 1230.19 | –
1100 kPa, m1 = 3 | 1200.48 | 1194.98 | 1185.53 | 1174.63 | 1162.6 | 1149.22 | 1134.62 | 1118.93 | –
10020 kPa, m1 = 1 | 1078.32 | 1074.43 | 1065.03 | 1052.8 | 1038.36 | 1021.72 | 1003.28 | 982.73 | 960.31
10020 kPa, m1 = 5 | – | 1300.39 | 1290.86 | 1280.63 | 1269.83 | 1258.16 | 1245.98 | 1232.81 | 1219.23
10100 kPa, m1 = 3 | 1203.26 | 1197.76 | 1188.36 | 1177.48 | 1165.51 | 1152.27 | 1137.91 | 1122.27 | 1105.72
19970 kPa, m1 = 1 | 1082.31 | 1078.17 | 1068.73 | 1056.56 | 1042.33 | 1025.91 | 1007.77 | 987.82 | 965.92
19970 kPa, m1 = 5 | – | 1302.84 | 1293.39 | 1283.18 | 1272.48 | 1260.88 | 1248.69 | 1235.76 | 1222.3
20100 kPa, m1 = 3 | 1206.45 | 1200.84 | 1191.36 | 1180.55 | 1168.64 | 1155.47 | 1141.36 | 1126 | 1109.63
29900 kPa, m1 = 1 | 1086.21 | 1081.96 | 1072.46 | 1060.31 | 1046.17 | 1029.97 | 1012.16 | 992.59 | 971.25
29900 kPa, m1 = 5 | – | 1305.37 | 1295.97 | 1285.71 | 1275.12 | 1263.46 | 1251.46 | 1238.61 | 1225.27
30100 kPa, m1 = 3 | 1209.48 | 1203.93 | 1194.33 | 1183.56 | 1171.77 | 1158.76 | 1144.67 | 1129.62 | 1113.5
39830 kPa, m1 = 1 | 1090.04 | 1085.7 | 1076 | 1063.92 | 1049.91 | 1033.96 | 1016.47 | 997.27 | 976.5
39830 kPa, m1 = 5 | – | 1307.91 | 1298.44 | 1288.26 | 1277.64 | 1266.15 | 1254.16 | 1241.42 | 1228.28
40100 kPa, m1 = 3 | 1212.45 | 1206.91 | 1197.32 | 1186.6 | 1174.82 | 1162.02 | 1147.96 | 1133.07 | 1117.27
49760 kPa, m1 = 1 | 1093.73 | 1089.34 | 1079.49 | 1067.47 | 1053.59 | 1037.86 | 1020.62 | 1001.73 | 981.41
49760 kPa, m1 = 5 | – | 1310.34 | 1300.8 | 1290.69 | 1280.15 | 1268.74 | 1256.84 | 1244.17 | 1231.18
50100 kPa, m1 = 3 | 1215.49 | 1209.79 | 1200.25 | 1189.47 | 1177.87 | 1165.1 | 1151.23 | 1136.51 | 1120.96
59680 kPa, m1 = 1 | 1097.42 | 1092.83 | 1082.98 | 1070.97 | 1057.17 | 1041.6 | 1024.61 | 1006.15 | 986.2
59680 kPa, m1 = 5 | – | 1312.81 | 1303.27 | 1293.17 | 1282.6 | 1271.25 | 1259.41 | 1246.88 | 1234.02
60100 kPa, m1 = 3 | 1218.46 | 1212.66 | 1203.13 | 1192.42 | 1180.77 | 1168.09 | 1154.39 | 1139.92 | 1124.6
68120 kPa, m1 = 1 | 1100.57 | 1095.78 | 1085.82 | 1073.88 | 1060.13 | 1044.71 | 1027.95 | 1009.73 | 990.1
68120 kPa, m1 = 5 | – | 1314.82 | 1305.22 | 1295.26 | 1284.68 | 1273.36 | 1261.6 | 1249.11 | 1236.38
68600 kPa, m1 = 3 | 1220.98 | 1215.18 | 1205.42 | 1194.89 | 1183.21 | 1170.63 | 1157.07 | 1142.62 | 1127.48

[Cl-].[K+] [potassium chloride] + O
mass density [kg/m3]
Details | 298.12 K | 323.07 K | 348.04 K | 372.99 K | 397.97 K | 422.94 K | 447.94 K | 472.96 K
900 kPa, m1 = 1.06 | 1044.2 | 1034.14 | 1020.74 | 1004.76 | 986.31 | 965.57 | 942.89 | –
900 kPa, m1 = 3.15 | 1124.07 | 1112.58 | 1098.82 | 1083.32 | 1065.9 | 1046.73 | 1025.62 | –
900 kPa, m1 = 4.49 | 1168.21 | 1156.09 | 1142.21 | 1126.88 | 1109.9 | 1091.46 | 1071.39 | –
9900 kPa, m1 = 1.06 | 1047.96 | 1037.83 | 1024.46 | 1008.64 | 990.53 | 970.25 | 948.08 | 923.68
9900 kPa, m1 = 3.15 | 1127.47 | 1115.91 | 1102.28 | 1086.89 | 1069.71 | 1050.87 | 1030.11 | 1007.94
9900 kPa, m1 = 4.49 | 1171.42 | 1159.3 | 1145.43 | 1130.26 | 1113.48 | 1095.41 | 1075.5 | 1054.54
19900 kPa, m1 = 1.06 | 1052.02 | 1041.82 | 1028.51 | 1012.91 | 995.11 | 975.13 | 953.62 | 929.93
19900 kPa, m1 = 3.15 | 1131.16 | 1119.53 | 1105.97 | 1090.74 | 1073.82 | 1055.23 | 1034.96 | 1013.25
19900 kPa, m1 = 4.49 | 1174.92 | 1162.77 | 1148.98 | 1133.92 | 1117.4 | 1099.54 | 1080.06 | 1059.47
29900 kPa, m1 = 1.06 | 1056.08 | 1045.67 | 1032.5 | 1017.11 | 999.53 | 979.97 | 958.88 | 935.86
29900 kPa, m1 = 3.15 | 1134.81 | 1123.11 | 1109.59 | 1094.53 | 1077.73 | 1059.51 | 1039.57 | 1018.38
29900 kPa, m1 = 4.49 | 1178.38 | 1166.16 | 1152.52 | 1137.58 | 1121.12 | 1103.53 | 1084.38 | 1064.17
39900 kPa, m1 = 1.06 | 1060 | 1049.58 | 1036.42 | 1021.1 | 1003.82 | 984.63 | 963.97 | 941.62
39900 kPa, m1 = 3.15 | 1138.35 | 1126.71 | 1113.24 | 1098.25 | 1081.65 | 1063.66 | 1044.09 | 1023.39
39900 kPa, m1 = 4.49 | 1181.79 | 1169.63 | 1155.93 | 1141.11 | 1124.86 | 1107.49 | 1088.62 | 1068.85
49900 kPa, m1 = 1.06 | 1063.86 | 1053.35 | 1040.18 | 1025.08 | 1008.02 | 989.18 | 968.88 | 947.07
49900 kPa, m1 = 3.15 | 1141.9 | 1130.16 | 1116.68 | 1101.91 | 1085.49 | 1067.79 | 1048.45 | 1028.19
49900 kPa, m1 = 4.49 | 1185.09 | 1172.93 | 1159.38 | 1144.58 | 1128.56 | 1111.34 | 1092.74 | 1073.32
59900 kPa, m1 = 1.06 | 1067.62 | 1057.01 | 1043.91 | 1028.91 | 1012.1 | 993.52 | 973.66 | 952.36
59900 kPa, m1 = 3.15 | 1145.28 | 1133.6 | 1120.15 | 1105.38 | 1089.26 | 1071.77 | 1052.77 | 1032.84
59900 kPa, m1 = 4.49 | 1188.28 | 1176.14 | 1162.56 | 1147.95 | 1132.08 | 1115.08 | 1096.73 | 1077.68
68400 kPa, m1 = 1.06 | 1070.84 | 1060.07 | 1047.14 | 1032.17 | 1015.46 | 997.11 | 977.57 | 956.79
68400 kPa, m1 = 3.15 | 1148.2 | 1136.35 | 1123.07 | 1108.37 | 1092.3 | 1075 | 1056.27 | 1036.57
68400 kPa, m1 = 4.49 | 1191.12 | 1178.8 | 1165.39 | 1150.77 | 1135 | 1118.18 | 1100.1 | 1081.18
